From ChEMBL document CHEMBL1201862, “PubChem BioAssay data set” (2004)
Active and inactive are the calls of the source.

Experiments:
Streptokinase A = target: T1, Streptokinase A (Streptococcus pyogenes serotype M1, UniProt P10520); experiment: viability-normalized secreted streptokinase activity reduction – plasminogen activation absorbance, OD405, dose response (AID 1914); type: functional, Streptococcus pyogenes M1 GAS;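 also: secreted streptokinase activity via plasminogen activation per viability signal from cell pellet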
T1 sequence (P10520 whole entry): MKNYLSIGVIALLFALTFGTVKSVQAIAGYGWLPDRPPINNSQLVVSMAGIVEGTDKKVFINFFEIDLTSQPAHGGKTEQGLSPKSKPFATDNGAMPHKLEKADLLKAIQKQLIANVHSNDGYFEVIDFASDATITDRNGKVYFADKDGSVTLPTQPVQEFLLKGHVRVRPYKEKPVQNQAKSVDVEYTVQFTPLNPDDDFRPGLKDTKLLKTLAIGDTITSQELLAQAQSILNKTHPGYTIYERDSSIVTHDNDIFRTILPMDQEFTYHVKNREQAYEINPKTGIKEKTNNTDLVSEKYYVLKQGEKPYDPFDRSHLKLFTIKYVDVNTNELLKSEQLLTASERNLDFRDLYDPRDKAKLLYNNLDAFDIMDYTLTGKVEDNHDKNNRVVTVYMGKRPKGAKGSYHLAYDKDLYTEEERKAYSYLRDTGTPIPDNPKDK

[1] = target: T2, Calpain-2 catalytic subunit (Sus scrofa, UniProt P43367); experiment: m-calpain protease blockers, concentration series – biochemical, fluorogenic peptide substrate, dose response (AID 1420); type: functional
T2 sequence (P43367 whole entry): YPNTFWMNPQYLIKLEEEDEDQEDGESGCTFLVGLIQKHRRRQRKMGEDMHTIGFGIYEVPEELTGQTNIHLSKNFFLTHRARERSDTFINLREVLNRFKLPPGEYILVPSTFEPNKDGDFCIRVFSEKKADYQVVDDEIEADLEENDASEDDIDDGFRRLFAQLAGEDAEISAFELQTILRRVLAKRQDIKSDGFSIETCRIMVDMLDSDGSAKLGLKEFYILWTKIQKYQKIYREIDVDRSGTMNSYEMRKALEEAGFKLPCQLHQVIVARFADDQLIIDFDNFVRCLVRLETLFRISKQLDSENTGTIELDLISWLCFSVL

[2] = target: Serine/threonine-protein phosphatase (Homo sapiens, UniProt Q9BPW0); experiment: inhibition of protein phosphatase 5 activity – biochemical, fluorescence, dose response (AID 2395)
Chain of Serine/threonine-protein phosphatase (Q9BPW0 whole entry): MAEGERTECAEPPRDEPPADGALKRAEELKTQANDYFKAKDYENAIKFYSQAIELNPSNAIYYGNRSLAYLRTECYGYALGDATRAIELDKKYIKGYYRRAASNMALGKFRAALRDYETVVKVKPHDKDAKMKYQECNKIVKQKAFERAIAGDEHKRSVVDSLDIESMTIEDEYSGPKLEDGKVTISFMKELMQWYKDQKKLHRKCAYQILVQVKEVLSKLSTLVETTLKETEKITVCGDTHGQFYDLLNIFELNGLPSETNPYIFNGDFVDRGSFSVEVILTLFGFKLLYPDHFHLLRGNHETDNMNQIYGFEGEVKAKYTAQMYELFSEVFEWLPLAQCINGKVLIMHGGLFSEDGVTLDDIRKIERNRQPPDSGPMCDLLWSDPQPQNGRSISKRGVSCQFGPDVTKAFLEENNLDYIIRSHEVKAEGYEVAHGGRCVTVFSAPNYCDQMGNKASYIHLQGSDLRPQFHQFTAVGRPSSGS

[3] = target: Polyadenylate-binding protein 1 (Homo sapiens, UniProt P11940); experiment: MLLE binding blockers, Cy5 peptide tracer – biochemical, fluorescence polarization, Cy5-PAM2 peptide, secondary, miRNA deadenylation inhibitor project, dose response (AID 602260); type: functional; conditions: read-out: IC50_Mean
Chain of Polyadenylate-binding protein 1 (P11940 whole entry): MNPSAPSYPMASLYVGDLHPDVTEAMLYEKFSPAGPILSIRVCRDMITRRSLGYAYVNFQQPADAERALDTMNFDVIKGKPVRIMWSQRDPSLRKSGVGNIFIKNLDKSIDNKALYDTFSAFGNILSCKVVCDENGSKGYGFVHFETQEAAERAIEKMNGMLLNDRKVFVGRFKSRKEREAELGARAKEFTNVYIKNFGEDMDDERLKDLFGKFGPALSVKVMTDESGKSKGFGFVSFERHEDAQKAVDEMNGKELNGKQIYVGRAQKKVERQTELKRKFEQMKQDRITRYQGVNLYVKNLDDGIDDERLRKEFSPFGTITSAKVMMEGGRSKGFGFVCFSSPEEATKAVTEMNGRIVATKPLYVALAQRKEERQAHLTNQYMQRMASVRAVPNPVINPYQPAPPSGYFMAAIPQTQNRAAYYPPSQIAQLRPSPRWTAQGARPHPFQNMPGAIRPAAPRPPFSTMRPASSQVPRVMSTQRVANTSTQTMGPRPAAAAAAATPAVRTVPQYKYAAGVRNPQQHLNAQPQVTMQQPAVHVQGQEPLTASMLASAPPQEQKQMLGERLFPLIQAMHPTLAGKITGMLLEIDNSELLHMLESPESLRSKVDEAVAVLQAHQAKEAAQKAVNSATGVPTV

Beta-galactosidase = Beta-galactosidase (Escherichia coli, UniProt Q8VNN2); experiment: detection-enzyme interference by beta-gal modulators – biochemical, E. coli enzyme, set 3, artefact control for CCR6 antagonist project, dose response (AID 504712); type: functional
Chain of Beta-galactosidase (Q8VNN2 whole entry): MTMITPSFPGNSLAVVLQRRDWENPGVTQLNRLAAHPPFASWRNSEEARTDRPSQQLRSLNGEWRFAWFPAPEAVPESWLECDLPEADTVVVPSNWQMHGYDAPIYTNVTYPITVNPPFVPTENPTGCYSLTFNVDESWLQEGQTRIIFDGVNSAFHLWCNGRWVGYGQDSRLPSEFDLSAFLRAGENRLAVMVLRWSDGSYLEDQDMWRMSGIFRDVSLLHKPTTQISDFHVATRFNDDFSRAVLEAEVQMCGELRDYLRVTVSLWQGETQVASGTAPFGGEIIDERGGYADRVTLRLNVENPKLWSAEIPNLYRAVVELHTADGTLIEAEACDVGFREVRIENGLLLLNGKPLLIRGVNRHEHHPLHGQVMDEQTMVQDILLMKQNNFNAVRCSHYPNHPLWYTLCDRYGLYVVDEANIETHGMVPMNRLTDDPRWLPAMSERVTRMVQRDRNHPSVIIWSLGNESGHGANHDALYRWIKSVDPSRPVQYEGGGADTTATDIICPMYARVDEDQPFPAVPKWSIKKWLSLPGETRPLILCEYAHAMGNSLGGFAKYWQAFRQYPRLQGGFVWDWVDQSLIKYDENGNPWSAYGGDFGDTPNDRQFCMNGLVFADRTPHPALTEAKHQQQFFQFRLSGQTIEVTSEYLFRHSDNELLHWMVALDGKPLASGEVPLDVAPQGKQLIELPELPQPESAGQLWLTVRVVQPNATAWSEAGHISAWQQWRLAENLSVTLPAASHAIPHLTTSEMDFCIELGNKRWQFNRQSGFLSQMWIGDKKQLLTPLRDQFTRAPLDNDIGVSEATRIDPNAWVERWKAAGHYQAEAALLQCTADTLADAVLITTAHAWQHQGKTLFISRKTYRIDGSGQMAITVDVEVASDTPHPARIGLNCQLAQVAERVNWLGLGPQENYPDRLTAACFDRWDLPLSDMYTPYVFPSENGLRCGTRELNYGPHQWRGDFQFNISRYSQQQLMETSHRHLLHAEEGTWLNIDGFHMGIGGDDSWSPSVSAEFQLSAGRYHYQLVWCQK

[4] = HEK-293T viability loss after treatment – luminescence, T-cell screen hits, cytotoxicity control for TCR NF-kB inhibitor project, dose response (AID 489026); type: functional, cell-based;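 also: cells exposed to compound about 14 hours before the viability readout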
[5] = target: T3, Mitochondrial peptide methionine sulfoxide reductase (Bos taurus, UniProt P54149); type: functional;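 also: absorbance read-out, biochemical high-throughput dose-response screen for MsrA inhibitors, confirmatory; recombinant bovine MsrA coupled to E. coli TrxB with NADPH and selenocystamine; potency is for inhibitors of MsrA activity on DMSO substrate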
T3 sequence (P54149 whole entry): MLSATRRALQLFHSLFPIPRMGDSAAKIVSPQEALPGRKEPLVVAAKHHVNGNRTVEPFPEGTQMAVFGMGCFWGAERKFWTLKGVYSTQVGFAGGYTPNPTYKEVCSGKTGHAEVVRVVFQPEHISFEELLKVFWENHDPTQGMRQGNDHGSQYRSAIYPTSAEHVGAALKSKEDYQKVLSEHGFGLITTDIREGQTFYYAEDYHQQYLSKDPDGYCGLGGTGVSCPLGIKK

Cc1cccc(C)c1-n1cccc1/C=C1\SC(=S)N(c2cccc(C(=O)O)c2)C1=O
EC50 (Streptokinase A): 3.8 µM (active)
IC50 [1]: 7.27 µM (not active)

Oc1ccc(/C=N/Nc2cc(N3CCCC3)nc(N3CCCC3)n2)cc1
IC50 [2]: 10.9 µM (not active)
IC50 [3]: > 66 µM (inactive)

COc1ccc(S(=O)(=O)/N=C2\C=C(Nc3ccc(O)cc3)C(=O)c3ccccc32)cc1
IC50 (Beta-galactosidase): 43 µM (inactive)
IC50 [4]: 4.19 µM (active)
IC50 [5]: 197 µM (inactive)
